From US20100298141A1, “SUBSTITUTED PYRIDINE N-OXIDE HERBICIDES” (E. I. DU PONT DE NEMOURS AND COMPANY, priority 2007, published 2010)

Columns and labels:
barnyardgrass [1] = test: Test A pre-/postemergence greenhouse test; assay type: in vivo, Echinochloa crus-galli; conditions: for Plant response rating, Barnyardgrass: 0 to 100 scale where 0 is no effect and 100 is complete control; for Barnyardgrass plant response rating: 0 to 100 scale
Outline: (§1)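 Untreated controls served as the reference for visual injury ratings taken about ten days after spraying. The non-phytotoxic solvent/surfactant formulation was applied preemergence to seeded loam and sand and postemergence to plants two to ten cm high.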

crabgrass = test: Test A pre-/postemergence greenhouse test; assay type: in vivo, Digitaria sanguinalis; conditions: for Plant response rating, Crabgrass, Large: 0 to 100 scale where 0 is no effect and 100 is complete control; for Crabgrass, Large plant response rating: 0 to 100 scale
Outline: as §1

giant foxtail = test: Test A pre-/postemergence greenhouse test; assay type: in vivo, Setaria faberi; conditions: for Plant response rating, Foxtail, Giant: 0 to 100 scale where 0 is no effect and 100 is complete control; for Foxtail, Giant plant response rating: 0 to 100 scale
Outline: as §1

morningglory = test: Test A pre-/postemergence greenhouse test; assay type: in vivo, Ipomoea spp.; conditions: for Plant response rating, Morningglory: 0 to 100 scale where 0 is no effect and 100 is complete control; for Morningglory plant response rating: 0 to 100 scale
Outline: as §1

redroot pigweed = test: Test A pre-/postemergence greenhouse test; assay type: in vivo, Amaranthus retroflexus; conditions: for Plant response rating, Pigweed: 0 to 100 scale where 0 is no effect and 100 is complete control; for Pigweed plant response rating: 0 to 100 scale
Outline: as §1

velvetleaf = test: Test A pre-/postemergence greenhouse test; assay type: in vivo, Abutilon theophrasti; conditions: for Plant response rating, Velvetleaf: 0 to 100 scale where 0 is no effect and 100 is complete control; for Velvetleaf plant response rating: 0 to 100 scale
Outline: as §1

wheat = test: Test A pre-/postemergence greenhouse test; assay type: in vivo, Triticum aestivum; conditions: for Plant response rating, Wheat: 0 to 100 scale where 0 is no effect and 100 is complete control; for Wheat plant response rating: 0 to 100 scale
Outline: as §1

corn = test: Test A pre-/postemergence greenhouse test; assay type: in vivo, Zea mays; conditions: for Plant response rating, Corn: 0 to 100 scale where 0 is no effect and 100 is complete control; for Corn plant response rating: 0 to 100 scale
Outline: as §1

rice = test: Test C flooded paddy test; assay type: in vivo, Oryza sativa; conditions: Flood
Outline: (§2)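 Test compounds are applied straight into paddy water held 3 cm above the soil surface, with that flood maintained for the whole test. After 13 to 15 days in the greenhouse, each species is scored visually relative to controls.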

umbrella sedge = test: Test C flooded paddy test; assay type: in vivo, Cyperus difformis; conditions: Flood
Outline: as §2

duck salad = test: Test C flooded paddy test; assay type: in vivo, Heteranthera limosa; conditions: Flood
Outline: as §2

barnyardgrass [2] = test: Test C flooded paddy test; assay type: in vivo, Echinochloa crus-galli; conditions: Flood
Outline: as §2

[3] = Postemergence, 500 g ai/ha, 0 is no effect, 100 is complete control
[4] = Preemergence, 125 g ai/ha, 0 no effect, 100 complete control
[5] = Preemergence, 500 g ai/ha, 0 no effect, 100 complete control
[6] = 62 g ai/ha, scale 0 to 100 (0 no effect, 100 complete control)
[7] = 250 g ai/ha, scale 0 to 100, 0 no effect, 100 complete control, 13 to 15 days

| SMILES | Plant response rating, Barnyardgrass (barnyardgrass [1]; Postemergence, 125 g ai/ha) | Barnyardgrass plant response rating (barnyardgrass [1]; [3]) | Barnyardgrass plant response rating (barnyardgrass [1]; [4]) | Plant response rating, Barnyardgrass (barnyardgrass [1]; Preemergence, 500 g ai/ha) | Plant response rating, Crabgrass, Large (crabgrass; Postemergence, 125 g ai/ha) | Crabgrass, Large plant response rating (crabgrass; [3]) | Crabgrass, Large plant response rating (crabgrass; [4]) | Plant response rating, Crabgrass, Large (crabgrass; Preemergence, 500 g ai/ha) | Plant response rating, Foxtail, Giant (giant foxtail; Postemergence, 125 g ai/ha) | Foxtail, Giant plant response rating (giant foxtail; [3]) | Foxtail, Giant plant response rating (giant foxtail; [4]) | Plant response rating, Foxtail, Giant (giant foxtail; Preemergence, 500 g ai/ha) | Plant response rating, Morningglory (morningglory; Postemergence, 125 g ai/ha) | Morningglory plant response rating (morningglory; [3]) | Morningglory plant response rating (morningglory; [4]) | Plant response rating, Morningglory (morningglory; Preemergence, 500 g ai/ha) | Plant response rating, Pigweed (redroot pigweed; Postemergence, 125 g ai/ha) | Pigweed plant response rating (redroot pigweed; [3]) | Pigweed plant response rating (redroot pigweed; [4]) | Plant response rating, Pigweed (redroot pigweed; Preemergence, 500 g ai/ha) | also measured |
| --- | --- | --- | --- | --- | --- | --- | --- | --- | --- | --- | --- | --- | --- | --- | --- | --- | --- | --- | --- | --- | --- |
| Cc1cc[n+]([O-])c(S(=O)(=O)Cc2c(C(F)(F)F)nn(C)c2OCC(F)(F)C(F)(F)F)c1 [Compound 98] | 0 | 70 | 60 | 100 | 10 | 70 | 30 | 90 | 20 | 80 | 50 | 100 | 10 | 80 | 0 | 50 | 0 | 20 | 20 | 60 | Plant response rating, Velvetleaf (velvetleaf; Postemergence, 125 g ai/ha): 0; Velvetleaf plant response rating (velvetleaf; [3]): 40; Velvetleaf plant response rating (velvetleaf; [4]): 0; Velvetleaf plant response rating (velvetleaf; [5]): 50; Plant response rating, Wheat (wheat; Postemergence, 125 g ai/ha): 0; Wheat plant response rating (wheat; [3]): 0; Wheat plant response rating (wheat; [4]): 0; Wheat plant response rating (wheat; [5]): 20; Plant response rating, Corn (corn; Postemergence, 125 g ai/ha): 30; Corn plant response rating (corn; [3]): 30; Corn plant response rating (corn; [4]): 0; Plant response rating, Corn (corn; Preemergence, 500 g ai/ha): 0; Plant response rating, Rice (rice; [6]): 0; Plant response rating, Rice (rice; [7]): 0; Plant response rating, Sedge, Umbrella (umbrella sedge; [6]): 0; Plant response rating, Sedge, Umbrella (umbrella sedge; [7]): 0; Plant response rating, Ducksalad (duck salad; [6]): 0; Plant response rating, Ducksalad (duck salad; [7]): 0; Plant response rating, Barnyardgrass (barnyardgrass [2]; [6]): 0; Plant response rating, Barnyardgrass (barnyardgrass [2]; [7]): 0 |
| Cc1cc[n+]([O-])c([S+]([O-])Cc2c(C(F)(F)F)nn(C)c2OCC(F)F)c1 (stereo not drawn) [Compound 86] | 70 | 90 | 70 | 100 | 50 | 90 | 70 | 100 | 80 | 90 | 90 | 100 | 60 | 90 | 50 | 90 | 60 | 90 | 90 | 100 | Plant response rating, Velvetleaf (velvetleaf; Postemergence, 125 g ai/ha): 50; Velvetleaf plant response rating (velvetleaf; [3]): 70; Velvetleaf plant response rating (velvetleaf; [4]): 10; Velvetleaf plant response rating (velvetleaf; [5]): 80; Plant response rating, Wheat (wheat; Postemergence, 125 g ai/ha): 50; Wheat plant response rating (wheat; [3]): 70; Wheat plant response rating (wheat; [4]): 70; Wheat plant response rating (wheat; [5]): 90; Plant response rating, Corn (corn; Postemergence, 125 g ai/ha): 0; Corn plant response rating (corn; [3]): 80; Corn plant response rating (corn; [4]): 20; Plant response rating, Corn (corn; Preemergence, 500 g ai/ha): 50; Plant response rating, Rice (rice; [6]): 0; Plant response rating, Rice (rice; [7]): 0; Plant response rating, Sedge, Umbrella (umbrella sedge; [6]): 45; Plant response rating, Sedge, Umbrella (umbrella sedge; [7]): 95; Plant response rating, Ducksalad (duck salad; [6]): 65; Plant response rating, Ducksalad (duck salad; [7]): 100; Plant response rating, Barnyardgrass (barnyardgrass [2]; [6]): 0; Plant response rating, Barnyardgrass (barnyardgrass [2]; [7]): 0 |
| Cc1cc(S(=O)(=O)Cc2c(C(F)(F)F)nn(C)c2OCC(F)(F)F)[n+]([O-])cc1Cl [Compound 71] | 40 | 80 | 40 | 90 | 30 | 70 | 50 | 100 | 40 | 80 | 90 | 100 | 0 | 30 | 0 | 10 | 50 | 70 | 70 | 100 | Plant response rating, Velvetleaf (velvetleaf; Postemergence, 125 g ai/ha): 20; Velvetleaf plant response rating (velvetleaf; [3]): 50; Velvetleaf plant response rating (velvetleaf; [4]): 0; Plant response rating, Velvetleaf (velvetleaf; Preemergence, 500 g ai/ha): 30; Plant response rating, Wheat (wheat; Postemergence, 125 g ai/ha): 30; Wheat plant response rating (wheat; [3]): 50; Wheat plant response rating (wheat; [4]): 0; Plant response rating, Wheat (wheat; Preemergence, 500 g ai/ha): 40; Plant response rating, Corn (corn; Postemergence, 125 g ai/ha): 0; Corn plant response rating (corn; [3]): 30; Corn plant response rating (corn; [4]): 20; Plant response rating, Corn (corn; Preemergence, 500 g ai/ha): 20; Plant response rating, Rice (rice; [6]): 30; Plant response rating, Rice (rice; [7]): 60; Plant response rating, Sedge, Umbrella (umbrella sedge; [6]): 0; Plant response rating, Sedge, Umbrella (umbrella sedge; [7]): 30; Plant response rating, Ducksalad (duck salad; [6]): 0; Plant response rating, Ducksalad (duck salad; [7]): 70; Plant response rating, Barnyardgrass (barnyardgrass [2]; [6]): 20; Plant response rating, Barnyardgrass (barnyardgrass [2]; [7]): 20 |
